Results as given in patent publication US11878975B2, “Substituted indole compounds useful as TLR inhibitors” (BRISTOL-MYERS SQUIBB COMPANY, priority 2017, dated 2024).

Experiments:
Assay type in all cases: cell-based
human TLR8 = target: T1, human TLR8 (Homo sapiens, UniProt Q9NR97); assay: TLR8 inhibition reporter assay (HEK-Blue cells, SEAP reporter, R848 stimulation); settings: HEK-Blue cells overexpressing human TLR8, SEAP reporter, R848 15.9 μM
T1 construct: host or cells: HEK-Blue cells
T1 sequence (Q9NR97 27-1041): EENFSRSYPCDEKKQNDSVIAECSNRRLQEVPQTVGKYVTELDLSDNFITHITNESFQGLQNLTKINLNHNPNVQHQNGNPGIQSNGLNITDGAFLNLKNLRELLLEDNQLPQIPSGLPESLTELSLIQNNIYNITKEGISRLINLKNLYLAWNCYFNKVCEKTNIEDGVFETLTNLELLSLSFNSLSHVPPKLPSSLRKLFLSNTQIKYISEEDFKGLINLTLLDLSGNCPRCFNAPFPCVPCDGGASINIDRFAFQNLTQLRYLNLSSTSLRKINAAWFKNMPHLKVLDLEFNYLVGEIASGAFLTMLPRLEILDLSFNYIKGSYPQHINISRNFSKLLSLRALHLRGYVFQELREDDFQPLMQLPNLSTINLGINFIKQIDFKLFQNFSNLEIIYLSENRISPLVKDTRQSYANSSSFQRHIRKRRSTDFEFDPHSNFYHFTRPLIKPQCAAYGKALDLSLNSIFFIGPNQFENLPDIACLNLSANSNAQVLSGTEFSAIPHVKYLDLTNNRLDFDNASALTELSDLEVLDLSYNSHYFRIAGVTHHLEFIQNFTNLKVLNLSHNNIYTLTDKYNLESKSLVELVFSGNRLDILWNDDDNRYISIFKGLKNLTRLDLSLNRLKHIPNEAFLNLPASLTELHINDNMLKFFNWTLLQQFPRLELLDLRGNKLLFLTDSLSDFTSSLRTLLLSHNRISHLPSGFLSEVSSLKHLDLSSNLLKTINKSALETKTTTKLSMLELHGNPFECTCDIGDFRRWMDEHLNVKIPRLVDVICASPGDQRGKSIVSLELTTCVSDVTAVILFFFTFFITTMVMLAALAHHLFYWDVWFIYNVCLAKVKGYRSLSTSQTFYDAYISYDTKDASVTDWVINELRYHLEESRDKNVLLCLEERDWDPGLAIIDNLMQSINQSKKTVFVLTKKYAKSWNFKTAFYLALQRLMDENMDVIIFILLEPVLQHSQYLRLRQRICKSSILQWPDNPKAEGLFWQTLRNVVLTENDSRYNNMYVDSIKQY
Outline: (§1)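 HEK-Blue cells with NF-κB/AP-1-driven SEAP reporter, pre-treated 30 min at room temperature with compound (0.05 nM-50 μM). Stimulants: gardiquimod 7.5 μM (TLR7), R848 15.9 μM (TLR8) or ODN2006 5 nM (TLR9). SEAP measured after 22 h at 37° C.; percent inhibition versus agonist-plus-DMSO and known-inhibitor wells.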

human TLR7 = target: T2, human TLR7 (Homo sapiens, UniProt Q9NYK1); assay: TLR7 inhibition reporter assay (HEK-Blue cells, SEAP reporter, gardiquimod stimulation); settings: HEK-Blue cells overexpressing human TLR7, SEAP reporter, gardiquimod 7.5 μM
T2 construct: host or cells: HEK-Blue cells
T2 sequence (Q9NYK1 27-1049): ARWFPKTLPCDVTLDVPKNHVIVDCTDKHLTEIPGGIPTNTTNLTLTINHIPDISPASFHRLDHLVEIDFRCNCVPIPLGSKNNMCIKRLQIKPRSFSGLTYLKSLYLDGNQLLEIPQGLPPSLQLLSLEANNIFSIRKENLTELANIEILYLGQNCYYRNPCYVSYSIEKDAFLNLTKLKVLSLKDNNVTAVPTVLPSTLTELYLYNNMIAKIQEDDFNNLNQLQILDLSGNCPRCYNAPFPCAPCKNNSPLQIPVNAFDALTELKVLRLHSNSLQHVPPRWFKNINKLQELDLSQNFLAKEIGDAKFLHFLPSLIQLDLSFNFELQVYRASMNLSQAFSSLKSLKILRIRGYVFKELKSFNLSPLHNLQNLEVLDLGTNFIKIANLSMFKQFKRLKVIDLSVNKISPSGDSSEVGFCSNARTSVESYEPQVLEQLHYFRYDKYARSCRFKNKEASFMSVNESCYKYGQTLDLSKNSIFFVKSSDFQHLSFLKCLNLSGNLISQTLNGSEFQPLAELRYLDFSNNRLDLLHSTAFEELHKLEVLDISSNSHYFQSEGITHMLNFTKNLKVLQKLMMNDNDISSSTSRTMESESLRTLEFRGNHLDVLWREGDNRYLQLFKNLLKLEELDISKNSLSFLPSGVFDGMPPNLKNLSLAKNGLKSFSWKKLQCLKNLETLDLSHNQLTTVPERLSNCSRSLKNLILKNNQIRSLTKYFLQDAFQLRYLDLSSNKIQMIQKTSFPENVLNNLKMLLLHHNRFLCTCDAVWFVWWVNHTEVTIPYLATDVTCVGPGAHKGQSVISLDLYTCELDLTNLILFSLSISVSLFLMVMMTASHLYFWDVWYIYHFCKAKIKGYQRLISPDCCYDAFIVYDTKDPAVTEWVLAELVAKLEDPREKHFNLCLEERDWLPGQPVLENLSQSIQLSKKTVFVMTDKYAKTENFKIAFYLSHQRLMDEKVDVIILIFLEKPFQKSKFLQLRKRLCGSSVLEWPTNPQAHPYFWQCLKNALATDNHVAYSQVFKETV
Outline: as §1

human TLR9 = target: T3, human TLR9 (Homo sapiens, UniProt Q9NR96); assay: TLR9 inhibition reporter assay (HEK-Blue cells, SEAP reporter, ODN2006 stimulation); settings: HEK-Blue cells overexpressing human TLR9, SEAP reporter, ODN2006 5 nM
T3 construct: host or cells: HEK-Blue cells
T3 sequence (Q9NR96 26-1032): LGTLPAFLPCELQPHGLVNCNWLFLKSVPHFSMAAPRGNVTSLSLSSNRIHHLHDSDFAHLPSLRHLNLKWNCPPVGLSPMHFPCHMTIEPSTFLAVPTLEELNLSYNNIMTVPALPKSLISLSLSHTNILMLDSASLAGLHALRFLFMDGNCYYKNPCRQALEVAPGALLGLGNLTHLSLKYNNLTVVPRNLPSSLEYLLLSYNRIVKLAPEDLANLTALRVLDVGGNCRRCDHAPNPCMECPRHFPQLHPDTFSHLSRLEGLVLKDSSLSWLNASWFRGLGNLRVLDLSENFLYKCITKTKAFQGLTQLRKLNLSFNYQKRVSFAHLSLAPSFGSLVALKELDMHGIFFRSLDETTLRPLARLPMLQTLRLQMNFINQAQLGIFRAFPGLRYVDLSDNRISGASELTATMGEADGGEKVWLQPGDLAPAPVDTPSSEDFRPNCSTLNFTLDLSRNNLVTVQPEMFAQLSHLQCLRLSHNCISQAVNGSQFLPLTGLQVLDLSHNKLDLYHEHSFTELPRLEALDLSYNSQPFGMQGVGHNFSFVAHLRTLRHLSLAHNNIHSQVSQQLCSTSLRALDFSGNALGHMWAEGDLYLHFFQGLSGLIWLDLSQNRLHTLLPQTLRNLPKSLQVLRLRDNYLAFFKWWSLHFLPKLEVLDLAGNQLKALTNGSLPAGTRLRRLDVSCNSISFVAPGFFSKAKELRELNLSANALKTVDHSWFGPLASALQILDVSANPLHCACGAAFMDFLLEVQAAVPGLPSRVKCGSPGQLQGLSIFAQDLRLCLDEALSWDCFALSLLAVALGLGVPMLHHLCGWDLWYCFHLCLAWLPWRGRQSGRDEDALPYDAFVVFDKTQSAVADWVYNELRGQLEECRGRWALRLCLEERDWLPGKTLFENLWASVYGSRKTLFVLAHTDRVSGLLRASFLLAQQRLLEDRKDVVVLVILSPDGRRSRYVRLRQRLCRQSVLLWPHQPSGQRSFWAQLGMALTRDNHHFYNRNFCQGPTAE
Outline: as §1

Structure (SMILES) | IC50 (human TLR8) [nM] | IC50 (human TLR7) [nM] | IC50 (human TLR9) [nM]
CNCC(=O)N1CCCC(c2ccc3[nH]c(-c4cc(OC)c5ncnn5c4)c(C(C)C)c3c2)C1 (stereo not drawn) [Example 212] | 13 | 3 | 8470
COc1cc(-c2[nH]c3ccc(C4CCC(N5CC[C@@H](N(C)C)C5)CC4)cc3c2C(C)C)cn2ncnc12 (stereo partly drawn) [Example 28] | 0.26 | 0.17 | 328
COc1cc(-c2[nH]c3ccc(C4CCC(N(C)C(=O)CN(C)C)CC4)cc3c2C(C)C)cn2ncnc12 (stereo not drawn) [Example 147, 2-(dimethylamino)-N-(4-(3-isopropyl-2-(8-methoxy-[1,2,4]triazolo[1,5-a]pyridin-6-yl)-1H-indol-5-yl)cyclohexyl)-N-methylacetamide] | 5.1 | 0.43 | 1490
Cc1cc(-c2[nH]c3ccc(C4CNCCO4)cc3c2C(C)C)cn2ncnc12 (stereo not drawn) [Example 283] | 1.3 | 0.95 | 2670
Cc1c(-c2[nH]c3ccc(C4CN(C(C)C)C4)cc3c2C(C)C)cn2cnnc2c1C [Example 534] | 28 | 9 | 7170
Cc1c(-c2[nH]c3ccc(C4CCC(N)CC4)cc3c2C(C)C)cn2cnnc2c1C (stereo not drawn) [Example 515] | 59 | 6 | 1230
Cc1cc(-c2[nH]c3ccc(C4CN(C(=O)CN(C)C)CCO4)cc3c2C(C)C)cn2ncnc12 (stereo not drawn) [Example 328, 2-(dimethylamino)-1-(2-(3-isopropyl-2-(8-methyl-[1,2,4]triazolo[1,5-a]pyridin-6-yl)-1H-indol-5-yl)morpholino)ethanone] | 8.2 | 0.85 | 5490
COc1cc(-c2[nH]c3ccc(C4CCC(NS(C)(=O)=O)CC4)cc3c2C(C)C)cn2ncnc12 (stereo not drawn) [Example 117, N-(4-(3-isopropyl-2-(8-methoxy-[1,2,4]triazolo[1,5-a]pyridin-6-yl)-1H-indol-5-yl)cyclohexyl)methanesulfonamide] | 9.8 | 0.7 | 14100
COc1cc(-c2[nH]c3ccc(C4CCC(NCC(N)=O)CC4)cc3c2C(C)C)cn2ncnc12 (stereo not drawn) [Example 109] | 4.1 | 0.83 | 1600
Cc1c(-c2[nH]c3ccc(C4CC(NCCS(C)(=O)=O)C4)cc3c2C(C)C)cn(C)c(=O)c1C (stereo not drawn) [Example 494] | 0.48 | 5 | 12000
COc1cc(-c2[nH]c3ccc(C4CN(C(=O)CN(C)C)C(C)(C)CO4)cc3c2C(C)C)cn2ncnc12 (stereo not drawn) [Example 374] | 110 | 20 | 5900
COc1cc(-c2[nH]c3ccc(C4CN(C(C)C)CCO4)cc3c2C(C)C)cn2ncnc12 (stereo not drawn) [Example 300] | 6.4 | 2 | 2500
Cc1cc(-c2[nH]c3ccc(C4CCC(NC5(C)COC5)CC4)cc3c2C(C)C)cn2ncnc12 (single isomer, unassigned) [Example 47] | 7.5 | 2 | 4650
Cc1cc(-c2[nH]c3ccc(C4CN(C(C)C)CCO4)cc3c2C(C)C)cc(C)n1 (stereo not drawn) [Example 305] | 0.94 | 32 | 1010
Cc1cc(-c2[nH]c3ccc(C4CNC4)cc3c2C(C)C)cc(C)n1 [Example 259] | 11 | 4 | 700
Cc1c(-c2[nH]c3ccc(C4CN(CC#N)C4)cc3c2C(C)C)cn2ncnc2c1C [Example 553] | 7.2 | 4 | 32300
COc1cc(-c2[nH]c3ccc(C4CCC(NC(=O)CN(C)C)CC4)cc3c2C(C)C)cn2ncnc12 (stereo not drawn) [Example 127] | 3.2 | 2 | 3160
CNC(=O)CN1CCOC(c2ccc3[nH]c(-c4cc(C)c5ncnn5c4)c(C(C)C)c3c2)C1 (stereo not drawn) [Example 317] | 90 | 12 | > 50000
CNCC(=O)N1CCOC(c2ccc3[nH]c(-c4cc(OC)c5ncnn5c4)c(C(C)C)c3c2)C1 (stereo not drawn) [Example 342] | 16 | 3 | 1720
Cc1c(-c2[nH]c3ccc(C4CN(C(=O)CN(C)C)CCO4)cc3c2C(C)C)cn2ncnc2c1C (stereo not drawn) [Example 330] | 3.4 | 1 | 3330
COc1cc(-c2[nH]c3ccc(CCN4CCCC4)cc3c2C(C)C)cn2ncnc12 [Example 414] | 4 | 3 | 4510
COc1cc(-c2[nH]c3ccc(C4CCCN(CC(C)(C)O)C4)cc3c2C(C)C)cn2ncnc12 (stereo not drawn) [Example 248, 1-(3-(3-isopropyl-2-(8-methoxy-[1,2,4]triazolo[1,5-a]pyridin-6-yl)-1H-indol-5-yl)piperidin-1-yl)-2-methylpropan-2-ol] | 2.1 | 0.76 | 2010
COc1cc(-c2[nH]c3ccc(C4CC5CNCC5C4)cc3c2C(C)C)cn2ncnc12 (stereo not drawn) [Example 508] | 11 | 0.43 | 1490
